Six compounds from PMC6916368, “Cell‐Based Optimization of Covalent Reversible Ketoamide Inhibitors Bridging the Unprimed to the Primed Site of the Proteasome β5 Subunit” (Chemmedchem, 2019) can be followed below.

Structures are written as SMILES.

In one assay the test system is MV4‐11 cells. The assay is described as follows: Cell viability endpoint assay (Celltiter Blue, 72 h). To be noted: Homo sapiens, MV4-11, mean±SD from two independent experiments. The format is cell-based. The method, then: Cell lines. MV4‐11 (ACC 102), Jurkat (ACC 282) and THP‐1 (ACC 16) cells were obtained from DSMZ and maintained at 37 °C and 5 % CO2 at densities between 0.2–1×10^6 cells per mL in RMPI‐1640 medium supplemented with 10 % FBS, L‐glutamine (2 mM) and penicillin/streptomycin.
Cell viability endpoint assay. For the determination of cytotoxicity of proteasome inhibitors 50.000 cells per well were plated in 90 μl RPMI‐1640 medium supplemented with 0.1 % FBS and incubated overnight at 37 °C and 5 % CO2. Inhibitors were serially diluted in RPMI‐1640 medium as 10‐fold stocks and added to cells giving the final concentration (1 nM to 10 μM, Figure S2–S4) and incubated for 72 h at 37 °C and 5 % CO2. Cell viability was determined using the Celltiter Blue assay (Promega) by adding 20 μl of reagent, incubation for 120 minutes at 37 °C and 5 % CO2 and fluorescent read‐out using a Tecan M1000 microplate reader. Dose‐response curves were fitted to the equation “Y=Bottom+(Top‐Bottom)/(1+10^(X−L°^gIC50))” using GraphPad Prism 7.02. IC50 values are determined from technical triplicates as mean value of two independent experiments. Standard deviations (Table S1) as well as dose response curves (SI chapter 2b) are given in the supplementary information.
A general note: Resazurin is reduced to fluorescent resorufin, in cell work by metabolically active cells.

For assay [1], the target named is T1, β5c subunit of isolated human 20S proteasome (Homo sapiens, UniProt P28074).
T1 construct: purchased Enzo Life Sciences
The assay is described as follows: Proteasome inhibition assay (20 S Proteasome Assay Kit, Suc‐LLVY‐AMC). The format is biochemical. The note with it: for inhibition at 1 µM: c = 1 µM, n=1, read-out: Inhibition cCP β5; for inhibition at 0.1 µM: c=100 nM, read-out: Rel. Inhibition β5c. The method, then: (§1) Proteasome inhibition assay. […] The 20 S Proteasome Assay Kit for Drug Discovery was used according to the supplier's protocol using Suc‐LLVY‐AMC (β5), Bz‐VGR‐AMC (β2) or Z‐LLE‐AMC (β1) as substrates (Enzo Life Sciences). Single point measurements of residual activity of proteasome activity were performed at a final concentration of 100 nM (n=3, β5c, β5i) or 1 μM (n=1, β1c, β2c, β5c, β5i, SI chapter 2a, Table S1). […] Inhibitors were prepared in 2‐fold concentration (cfinal=100 nM) and added to proteasomes (mfinal=200 ng/well). After 30 min incubation, substrate was added (cfinal=100 μM), incubated for 60 minutes and fluorescence was read using a Tecan M1000 microplate reader. […] IC50 values were determined from technical duplicates as mean value of three independent experiments.

Assay [2] concerns the target T2, β5i subunit of isolated human 20S proteasome (Homo sapiens, UniProt P28062).
T2 construct: purchased Enzo Life Sciences
The assay is described as above. The format is biochemical. The note with it: for inhibition at 1 µM: c = 1 µM, n=1, read-out: Inhibition iCP β5; for inhibition at 0.1 µM: c=100 nM, read-out: Rel. Inhibition β5i. The procedure: as §1

Assay [3] addresses T3, β1c subunit of isolated human 20S proteasome (Homo sapiens, UniProt P28072).
T3 construct: purchased Enzo Life Sciences
The assay is described as follows: Proteasome inhibition assay (20 S Proteasome Assay Kit, Z‐LLE‐AMC). To be noted: c = 1 µM, n=1; read-out: Inhibition cCP β1. The format is biochemical. The procedure:
as §1

Assay [4] has as its target T4, β2c subunit of isolated human 20S proteasome (Homo sapiens, UniProt Q99436).
T4 construct: purchased Enzo Life Sciences
The assay is described as follows: Proteasome inhibition assay (20 S Proteasome Assay Kit, Bz‐VGR‐AMC). The format is biochemical. To be noted: c = 1 µM, n=1; read-out: Inhibition cCP β2. The procedure: Proteasome inhibition assay. Bortezomib (Selleckchem) and carfilzomib (MedChemExpress) were purchased and used without further purification. The 20 S Proteasome Assay Kit for Drug Discovery was used according to the supplier's protocol using Suc‐LLVY‐AMC (β5), Bz‐VGR‐AMC (β2) or Z‐LLE‐AMC (β1) as substrates (Enzo Life Sciences). Single point measurements of residual activity of proteasome activity were performed at a final concentration of 100 nM (n=3, β5c, β5i) or 1 μM (n=1, β1c, β2c, β5c, β5i, SI chapter 2a, Table S1). […] Inhibitors were prepared in 2‐fold concentration (cfinal=100 nM) and added to proteasomes (mfinal=200 ng/well). After 30 min incubation, substrate was added (cfinal=100 μM), incubated for 60 minutes and fluorescence was read using a Tecan M1000 microplate reader. Dose‐response curves were fitted to the equation Y=100/(1+10^((L°^gIC50−X)*HillSl°^pe)) using GraphPad Prism 7.02. IC50 values were determined from technical duplicates as mean value of three independent experiments.

What is called IC50 is the point on the concentration scale where inhibition reaches its midpoint. Broadly, the inhibition is the relative decrease from the control value, in per cent.

With `CC(C)C[C@@H](C=O)NC(=O)[C@H](CC(C)C)NC(=O)[C@H](CC(C)C)NC(=O)c1cnccn1` [Compound 23, N ‐((S)‐4‐Methyl‐1‐(((S)‐4‐methyl‐1‐(((S)‐4‐methyl‐1‐oxopentan‐2‐yl)amino)‐1‐oxopentan‐2‐yl)amino)‐1‐oxopentan‐2‐yl)pyrazine‐2‐carboxamide], the IC50 in the assay with MV4‐11 cells was determined as 145 ± 23 nM. Further, the inhibition at 1 µM in assay [1] came to 75%; in assay [2], 64%; in assay [3] it was 19%; in assay [4] it was 49%. Also, the inhibition at 0.1 µM in assay [1] is 30%; in assay [2], 4%.
In the assay on MV4‐11 cells, `CC(C)C[C@@H](C=O)NC(=O)[C@H](CC(C)C)NC(=O)[C@H](CC(C)C)NC(=O)c1cc(Cl)ccc1Cl` [Compound 24, 2,5‐Dichloro‐N‐((S)‐4‐methyl‐1‐(((S)‐4‐methyl‐1‐(((S)‐4‐methyl‐1‐oxopentan‐2‐yl)‐amino)‐1‐oxo‐pentan‐2‐yl)amino)‐1‐oxopentan‐2‐yl)benzamide] came in with an IC50 of 16 ± 1 nM. The inhibition at 1 µM in assay [1] was 94%; in assay [2] it was 89%; in assay [3], 13%; in assay [4], 26%. In addition, the inhibition at 0.1 µM in assay [1] was 76%; in assay [2], 60%.
As to `CC(C)C[C@@H](C=O)NC(=O)[C@H](CC(=O)OC(C)(C)C)NC(=O)[C@H](CC(C)C)NC(=O)c1cc(Cl)ccc1Cl` [Compound 25, tert ‐Butyl (S)‐3‐((S)‐2‐(2,5‐dichlorobenzamido)‐4‐methylpentanamido)‐4‐(((S)‐4‐methyl‐1‐oxopen‐tan‐2‐yl)amino)‐4‐oxobutanoate], in the assay with MV4‐11 cells, inhibition was half-maximal at 28 ± 5 nM (IC50). The inhibition at 1 µM worked out at 90% in assay [1], 75% in assay [2], 9% in assay [3] and 10% in assay [4]. For the same compound, the inhibition at 0.1 µM in assay [1] worked out at 64%; in assay [2], 38%.
Consider `Cc1ccc(NC(=O)C(=O)[C@H](CC(C)C)NC(=O)[C@H](CC(C)C)NC(=O)[C@H](CC(C)C)NC(=O)c2cc(Cl)ccc2Cl)c(C)c1` [Compound 26, 2,5‐Dichloro‐N‐((S)‐1‐(((S)‐1‐(((S)‐1‐((2,4‐dimethylphenyl)amino)‐5‐methyl‐1,2‐dioxohexan‐3‐yl)amino)‐4‐methyl‐1‐oxopentan‐2‐yl)amino)‐4‐methyl‐1‐oxopentan‐2‐yl)‐benzamide], for which it took 25 ± 5 nM to reach half-maximal inhibition with MV4‐11 cells (IC50). Moreover, the inhibition at 1 µM was 51% in assay [1], 24% in assay [2], -38% in assay [3] and 17% in assay [4]. Moreover, the figures for the inhibition at 0.1 µM in assay [1] and in assay [2] were 25% and 4%, respectively.
In the assay on MV4‐11 cells, `Cc1ccc(NC(=O)C(=O)[C@H](CC(C)C)NC(=O)[C@H](CC(=O)OC(C)(C)C)NC(=O)[C@H](CC(C)C)NC(=O)c2cc(Cl)ccc2Cl)c(C)c1` [Compound 28, tert ‐Butyl (S)‐3‐((S)‐2‐(2,5‐dichlorobenzamido)‐4‐methylpentanamido)‐4‐(((S)‐1‐((2,4‐dimethyl‐phenyl)amino)‐5‐methyl‐1,2‐dioxohexan‐3‐yl)amino)‐4‐oxobutanoate] had an IC50 of 47 ± 5 nM. The inhibition at 1 µM in assay [1] is 81%; in assay [2], 52%; in assay [3], -10%; in assay [4], 6%. Further, the inhibition at 0.1 µM amounted to 26% in assay [1] and 35% in assay [2].
As for `Cc1cc(C)c(Oc2ccccc2)cc1NC(=O)C(=O)[C@H](CC(C)C)NC(=O)[C@H](CC(=O)OC(C)(C)C)NC(=O)[C@H](CC(C)C)NC(=O)c1cc(Cl)ccc1Cl` [Compound 29, tert ‐Butyl (S)‐3‐((S)‐2‐(2,5‐dichlorobenzamido)‐4‐methylpentanamido)‐4‐(((S)‐1‐((2,4‐dimethyl‐5‐phenoxyphenyl)amino)‐5‐methyl‐1,2‐dioxohexan‐3‐yl)amino)‐4‐oxobuta‐noate], in the assay with MV4‐11 cells, half-maximal inhibition (IC50) was put at 58 ± 10 nM. Besides, the inhibition at 1 µM in assay [1] is 53%; in assay [2], -1%; in assay [3], -19%; in assay [4] it was -4%. In addition, the inhibition at 0.1 µM in assay [1] came out at 26%; in assay [2], 8%.
